The target in assay [1] is T1, Human sputum neutrophil elastase (Homo sapiens, UniProt P08246).
T1 construct: purchased Elastin Products Co; host or cells: human sputum (natural source)
T1 sequence (P08246 30-247 limits assumed): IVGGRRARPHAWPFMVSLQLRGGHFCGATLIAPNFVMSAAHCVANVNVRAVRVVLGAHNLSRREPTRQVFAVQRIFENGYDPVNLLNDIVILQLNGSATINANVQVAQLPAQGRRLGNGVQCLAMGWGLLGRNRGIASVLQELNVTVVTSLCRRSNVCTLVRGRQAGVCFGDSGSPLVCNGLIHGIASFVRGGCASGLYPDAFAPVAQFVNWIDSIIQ
Put plainly: Inhibitor IC50 against human neutrophil elastase (fluorogenic MeOSuc-AAPV-AMC substrate). The conditions noted are these: 20 min preincubation, read-out: HNE IC50. Format: biochemical. The gist of the method:
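Enzyme from human sputum in 200 mM Tris pH 7.4 with 1 mg/ml BSA; MeOSuc-AAPV-AMC at 1×10^−4 M final. Reaction ran 20 min at room temperature, then quenched with 3% (v/v) acetic acid. IC50 from Hill fit of fluorescence versus inhibitor concentration.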

The subject of assay [2] is HNE-induced hemorrhage in the lung. Put plainly: Neutrophil elastase-induced lung hemorrhagic assay. Format: in vivo. The conditions noted are these: Mus musculus, iv, 10 mg/kg intravenously to male balb/c mice 10 min before intratracheal HNE, hemoglobin in BALF 3 h after HNE, vs vehicle-treated controls, read-out: % Inhibition in Murine Lung Hemorrhage Model @ 10 mg/kg. From the text:
Neutrophil Elastase-Induced Lung Hemorrhagic Assay
This in vivo assay is based on estimating the amount of hemorrhage in the lung following intratracheal administration of human neutrophil elastase (HNE). Hemorrhage is quantified by measuring the concentration of hemoglobin in the bronchoalveolar lavage fluid (BALF).
DMSO or saline served as vehicle controls. Mice were anesthetized with halothane and the trachea exposed by a small incision in the neck. Ten minutes after compound administration, mice received 7.5 units/animal of HNE (Elastin Products Co.) dissolved in […] saline. Three hours after HNE instillation, the animals were euthanized with an overdose of urethane. […] Triton X-100 was added to the collected BALF at a final concentration of 0.2% (v/v) to ensure cell disruption.

Structures are written as SMILES. Some results are limits rather than exact numbers.

For orientation: IC50 means the concentration at which inhibition is half-maximal. In the case of `Cc1cccc2nc(-c3cccnc3N3CCC(N(C)C)C3)oc(=O)c12` (stereo not drawn) [Compound 46, 2-[2-(3-Dimethylamino-pyrrolidin-1-yl)-pyridin-3-yl]-5-methyl-4H-benz[d][1,3]oxazin-4-one], the half-maximal inhibitory concentration (IC50) in assay [1] lay within 0.061 to 0.15 µM. Further, the inhibition in vivo at 10 mg/kg in assay [2] is above 30%.

Take `Cc1cccc2nc(-c3cccnc3N3CCN(C)C(C)C3)oc(=O)c12` (stereo not drawn) [Compound 50]: the concentration for half-maximal inhibition (IC50) in assay [1] was above 0.15 µM. For the same compound, in assay [2], the inhibition in vivo at 10 mg/kg lay within 11 to 30%. Regarding `O=c1oc(-c2cccnc2Oc2ccc(F)cc2)nc2cccc(Cl)c12` [Compound 26], in assay [1], the concentration for half-maximal inhibition (IC50) lay in the range of 0.061 to 0.15 µM. Also, in assay [2], the inhibition in vivo at 10 mg/kg lay in the range of 11 to 30%.

Consider `Cc1cccc2nc(-c3cccnc3N3CCN(CC4CC4)CC3)oc(=O)c12` [Compound 54], for which the IC50 in assay [1] is above 0.15 µM. Further, in assay [2], the inhibition in vivo at 10 mg/kg is above 30%. As to `COCCN1CCN(c2ncccc2-c2nc3cccc(C)c3c(=O)o2)CC1` [Compound 44], the IC50 in assay [1] lay within 0.016 to 0.06 µM. Moreover, the inhibition in vivo at 10 mg/kg in assay [2] fell in the range of 11 to 30%. For the compound `Cc1cccnc1-c1nc2cccc(Cl)c2c(=O)o1` [Compound 18], the IC50 in assay [1] lay in the range of 0.016 to 0.06 µM. Further, the inhibition in vivo at 10 mg/kg in assay [2] was below 10%.

Turning to `Cc1cccc2nc(-c3ccccn3)oc(=O)c12` [Compound 4], the IC50 in assay [1] is above 0.15 µM. Further, the inhibition in vivo at 10 mg/kg in assay [2] was above 30%. `COCCOCCOCCOCCOc1ncccc1-c1nc2cccc(C)c2c(=O)o1` [Compound 52, 2-[2-(2-{2-[2-(2-Methoxy-ethoxy)-ethoxy]-ethoxy}-ethoxy)-pyridin-3-yl]-5-methyl-4H-benz[d][1,3]oxazin-4-one]: the IC50 in assay [1] lay within 0.016 to 0.06 µM. Besides, the inhibition in vivo at 10 mg/kg in assay [2] lay within 11 to 30%. As for `Cc1cccc2nc(-c3cccnc3Oc3ccc(F)cc3)oc(=O)c12` [Compound 36], the half-maximal inhibitory concentration (IC50) in assay [1] fell in the range of 0.016 to 0.06 µM. In addition, the inhibition in vivo at 10 mg/kg in assay [2] is above 30%. On the same counts, the results for `Cc1cccc2nc(-c3cccnc3N3CCCC(N(C)C)C3)oc(=O)c12` (stereo not drawn) [Compound 49] are 0.061 to 0.15 µM and below 10%. Consider `CCc1cc(OC)cc2nc(-c3cccc(N4CCN(C)CC4)n3)oc(=O)c12` [Compound 206], for which the IC50 in assay [1] is 0.016 to 0.06 µM. Consider `CCc1cc(OC)cc2nc(-c3cccnc3N3CCC(Cc4ccccc4)CC3)oc(=O)c12` [Compound 224], for which the half-maximal inhibitory concentration (IC50) in assay [1] was in the range of 0.061 to 0.15 µM.

With `O=c1oc(-c2cccnc2Oc2ccccc2)nc2cccc(C(F)(F)F)c12` [Compound 39], in assay [1], the half-inhibitory concentration (IC50) is below 0.015 µM. Further, the inhibition in vivo at 10 mg/kg in assay [2] was above 30%. In the case of `CCc1cc(OC)cc2nc(-c3cccnc3N3CCC(CN(C)C)CC3)oc(=O)c12` [Compound 246], the half-inhibitory concentration (IC50) in assay [1] was 0.016 to 0.06 µM.

Take `COCCN1CCN(c2ncccc2-c2nc3cc(OC)cc(C4CC4)c3c(=O)o2)CC1` [Compound 167]: in assay [1], the concentration for half-maximal inhibition (IC50) fell in the range of 0.061 to 0.15 µM. Turning to `COc1cc(C(C)C)c2c(=O)oc(-c3cnn(C)c3N3CCN(CCN(C)C)CC3)nc2c1` [Compound 125], the IC50 in assay [1] is above 0.15 µM. As for `Cc1cccnc1-c1nc2cccc(C)c2c(=O)o1` [Compound 19], in assay [1], the IC50 was above 0.15 µM. Consider `CCc1cc(OC)cc2nc(-c3cccnc3N3CCC[C@H]3CN3CCCC3)oc(=O)c12` [Compound 271], for which the IC50 in assay [1] was below 0.015 µM. On to `CSc1ncccc1-c1nc2cccc(C)c2c(=O)o1` [Compound 23], for which the IC50 in assay [1] is 0.061 to 0.15 µM. With `CCc1cc(OC)cc2nc(-c3cccnc3N3CCN(c4cccnc4)CC3)oc(=O)c12` [Compound 240], in assay [1], the half-maximal inhibitory concentration (IC50) is below 0.015 µM. As for `CCc1cc(OC)cc2nc(-c3cccnc3N3CCN(CC(=O)N4CCOCC4)CC3)oc(=O)c12` [Compound 197], in assay [1], the IC50 was below 0.015 µM. `CCCc1cc(OC)cc2nc(-c3cccnc3N3CC[C@H](N(C)C)C3)oc(=O)c12` [Compound 148]: the IC50 in assay [1] lay within 0.016 to 0.06 µM. As to `CCc1cc(OC)cc2nc(-c3cccnc3N3CCC(C)(C(=O)NCCN(CC)CC)CC3)oc(=O)c12` [Compound 274], the IC50 in assay [1] was below 0.015 µM. Consider `CCc1cc(OC)cc2nc(-c3cccnc3N3C[C@@H](CNC4CC4)[C@H](C)C3)oc(=O)c12` [Compound 259], for which, in assay [1], the IC50 lay in the range of 0.016 to 0.06 µM. As for `COc1cc(C(C)C)c2c(=O)oc(-c3cccnc3N3CCN(CCN4CCOCC4)CC3)nc2c1` [Compound 114], the IC50 in assay [1] lay in the range of 0.061 to 0.15 µM.

`CCc1cc(OC)cc2nc(-c3cccnc3N3CCN(CCNC(=O)OC(C)(C)C)CC3)oc(=O)c12` [Compound 202]: in assay [1], the IC50 lay within 0.016 to 0.06 µM.

Consider `CCc1cccc2nc(-c3cccnc3N3CC[C@@H](N(C)C)C3)oc(=O)c12` [Compound 100], for which, in assay [1], the 50% inhibitory concentration (IC50) is below 0.015 µM. Turning to `C=CCN1CCN(c2ncccc2-c2nc3cc(OC)cc(CC)c3c(=O)o2)CC1` [Compound 193], the IC50 in assay [1] was below 0.015 µM. Turning to `Cc1cccc2nc(-c3cnccn3)oc(=O)c12` [Compound 5], in assay [1], the half-maximal inhibitory concentration (IC50) lay within 0.061 to 0.15 µM.

With `Cc1cccc2nc(-c3cccnc3Oc3ccc(Cl)cc3)oc(=O)c12` [Compound 21], in assay [1], the IC50 lay within 0.016 to 0.06 µM. In assay [2], the inhibition in vivo at 10 mg/kg is below 10%. As for `COc1cccc2nc(-c3cccnc3N3CCN(C)C(C)C3)oc(=O)c12` (stereo not drawn) [Compound 45], the IC50 in assay [1] was above 0.15 µM.

`CCc1cc(OC)cc2nc(-c3ccc(N4CCN(C)CC4)nc3)oc(=O)c12` [Compound 207]: in assay [1], the IC50 lay within 0.016 to 0.06 µM. On to `CCc1cc(OC)cc2nc(-c3cccnc3N3CC[C@@H](N(C)CCO)C3)oc(=O)c12` [Compound 270], for which the concentration for half-maximal inhibition (IC50) in assay [1] is below 0.015 µM. Turning to `Cc1cccc2nc(-c3cccnc3N(C)C3CCN(C)C3)oc(=O)c12` (stereo not drawn) [Compound 53], in assay [1], the IC50 lay within 0.061 to 0.15 µM. Also, the inhibition in vivo at 10 mg/kg in assay [2] was in the range of 11 to 30%. On to `O=c1oc(-c2cccnc2-n2ccnc2)nc2cccc(Br)c12` [Compound 72], for which the IC50 in assay [1] lay in the range of 0.061 to 0.15 µM. With `CCc1cccc2nc(-c3cccnc3N3CC[N+](C)(CC(N)=O)CC3)oc(=O)c12` [Compound 101], in assay [1], the IC50 was below 0.015 µM.

Consider `CCc1cc(OC)cc2nc(-c3cccnc3-n3ccnc3)oc(=O)c12` [Compound 106], for which, in assay [1], the half-maximal inhibitory concentration (IC50) was below 0.015 µM.

As to `CCc1cccc2nc(-c3ncccc3-n3ccnc3)oc(=O)c12` [Compound 97], the IC50 in assay [1] is below 0.015 µM. Regarding `CCc1cc(OC)cc2nc(-c3cccnc3N3CC[N+](C)(C)CC3)oc(=O)c12` [Compound 229], in assay [1], the half-inhibitory concentration (IC50) is below 0.015 µM.

`CCc1cc(OC)cc2nc(-c3cccnc3N(C)CC3CCN(C)C3)oc(=O)c12` (stereo not drawn) [Compound 244]: the half-inhibitory concentration (IC50) in assay [1] is below 0.015 µM. On the same count and under the same terms, the figure for `COc1cccc2nc(-c3cccnc3-n3ccnc3)oc(=O)c12` [Compound 66] is above 0.15 µM. On the same count and under the same terms, the figure for `Cc1cccc2nc(-c3cccnc3SCCS(=O)(=O)c3ccccc3)oc(=O)c12` [Compound 29] is 0.016 to 0.06 µM. The same measure, in the same setting: the figure for `COc1cc(C2CCC2)c2c(=O)oc(-c3cccnc3N(C)CCN(C)C)nc2c1` [Compound 188] is 0.016 to 0.06 µM; for `CCc1cc(OC)cc2nc(-c3cccnc3N3CCC(CCN4CCCC4)CC3)oc(=O)c12` [Compound 257] it is below 0.015 µM; for `CCc1cc(OC)cc2nc(-c3cccnc3N3CC[C@H](N4CCS(=O)(=O)CC4)C3)oc(=O)c12` [Compound 264] it is below 0.015 µM. Take `CCc1cc(OC)cc2nc(-c3cccnc3N3CCN(c4ccccn4)CC3)oc(=O)c12` [Compound 253]: the half-inhibitory concentration (IC50) in assay [1] is below 0.015 µM.

Consider `CCc1cc(OC)cc2nc(-c3cccnc3N3CCCCC3)oc(=O)c12` [Compound 226], for which the half-inhibitory concentration (IC50) in assay [1] was 0.016 to 0.06 µM. Take `CCc1cccc2nc(-c3cccnc3-n3cc[n+](C)c3)oc(=O)c12` [Compound 84]: in assay [1], the half-inhibitory concentration (IC50) lay within 0.016 to 0.06 µM. The same measure, in the same setting: the figure for `C#CCN1CCN(c2ncccc2-c2nc3cccc(CC)c3c(=O)o2)CC1` [Compound 234] is below 0.015 µM; for `CCc1cc(OC)cc2nc(-c3cccnc3N3CCC(N(CC)CC)C3)oc(=O)c12` (stereo not drawn) [Compound 189] it is below 0.015 µM; for `Cc1cccc2nc(-c3cccnc3OCCN(C)C)oc(=O)c12` [Compound 61] it is above 0.15 µM. As to `COc1cc(C2CC2)c2c(=O)oc(-c3cccnc3N(C)CCN(C)C)nc2c1` [Compound 172], in assay [1], the IC50 lay in the range of 0.061 to 0.15 µM. Consider `CCc1cccc2nc(-c3cccnc3N3CCC(N(C)C)C3)oc(=O)c12` (stereo not drawn) [Compound 85], for which the IC50 in assay [1] is below 0.015 µM. With `Cc1cccc2nc(-c3cccnc3N3CCS(=O)(=O)CC3)oc(=O)c12` [Compound 62], the half-inhibitory concentration (IC50) in assay [1] was above 0.15 µM. `CCc1cc(OC)cc2nc(-c3cccnc3N3CCC(CN4CCCC4)CC3)oc(=O)c12` [Compound 272]: the half-inhibitory concentration (IC50) in assay [1] is below 0.015 µM. As for `CCc1cc(OC)cc2nc(-c3cccnc3N3CC4CC3CN4CC)oc(=O)c12` (stereo not drawn) [Compound 254], the IC50 in assay [1] is 0.016 to 0.06 µM. As to `CCc1cc(OC)cc2nc(-c3cccnc3N3CCC(CN4CCOCC4)CC3)oc(=O)c12` [Compound 245], the IC50 in assay [1] was below 0.015 µM.

In the case of `Cc1cccc2nc(-c3ccncc3)oc(=O)c12` [Compound 9], the IC50 in assay [1] was above 0.15 µM.

Regarding `CCc1cc(OC)cc2nc(-c3cccnc3N3CCN(CCCC#N)CC3)oc(=O)c12` [Compound 219], in assay [1], the IC50 is 0.016 to 0.06 µM.
